Results published in ChEMBL document CHEMBL5335850, “Isolation of Paraphaeoketones: A Plausible Biosynthetic Explanation for Paraphaeolactones via a Benzilic Acid Rearrangement Rather than a Favorskii Rearrangement” (J Nat Prod, 2024).
Active and inactive are the calls of the source. The rule behind the calls is not given here.

How the values were obtained:
[1] = test system: COLO 201; assay: Cytotoxicity against human COLO201 cells assessed as inhibition of cell proliferation incubated for 24 hrs by WST-1 reagent based titer-plate reader assay; format: functional
[2] = test system: Bipolaris oryzae; assay: Antifungal activity against Bipolaris oryzae assessed as inhibition of fungal growth incubated for 5 days by paper disk method; format: functional, organism-based; conditions: time 5.0 day

CC1C=CC2(O)CC(=O)C(=O)C1C2O (stereo unspecified)
Activity [1]: inactive
Activity [2]: inactive

C[C@@H]1C=C[C@@]2(O)[C@H](O)[C@@H]1C(=O)[C@]1(O)O[C@H]3C(=O)[C@@H]4[C@H](C)C=C[C@](O)([C@H]3[C@H]21)[C@@H]4O
Activity [1]: inactive
Activity [2]: inactive

CC1C2CC3(O)OC(C)(O2)C(=O)C1C3O (stereo unspecified)
Activity [1]: inactive
Activity [2]: inactive
